Measurements: patent publication US12668599B2, “Heterobifunctional compounds and methods of treating disease” (Halda Therapeutics OpCo, Inc., priority 2023, dated 2026)

Key:
[1] = system: androgen receptor WT, T878A, L702H and H875Y and BRD4 protein; assay: Ternary complex formation in TRex293 cells with doxycycline inducible androgen receptor (AR capture / HRP-BRD4 antibody ELISA); type: cell-based; conditions: Trex293 cells engineered to express wtAR and the T878A, L702H and H875Y AR mutants, 1 hour treatment, FIG. 2
Experimental: Compound II-5 was tested for ability to form a ternary complex containing Compound II-5, androgen receptor, and bromodomain-containing protein 4 (BRD4) protein using TRex293 cells induced to express elevated levels of androgen receptor.
TRex293 cells expressing doxycycline inducible androgen receptor WT, T878A, L702H and H875Y were generated and cultured in DMEM medium supplemented with 10% heat inactivated fetal bovine serum, and 1% pen-strep (culture medium). 25,000 cells were seeded per well in 100 μL of phenol red free DMEM containing 10% CSS, 1% pen strep, and 10 ng/mL doxycycline in a clear 96-well poly-D-lysine coated plate. Plates were incubated at 37° C. Black, opaque 96-well MaxiSorp plates were coated with 50 μL of androgen receptor antibody diluted in phosphate buffered saline (PBS). The coated plates were sealed and placed at 4° C. overnight. Plates coated with androgen receptor antibody were washed three times with 200 μL 1× tris -buffered saline plus 0.1% Tween20 (TBST), then blocked with 200 μL of 3% bovine serum albumin in TBST for 1 hour at room temperature. Test compound titrations were diluted in culture medium. 100 μL of the test compound/media mixture was added to the cell plate. After treatment, plates were incubated for 1 hour. Then, cells were washed once with 250 μL 1× PBS. […] Fluorescent endpoint read was conducted on a SpectraMax plate reader.

VCaP cell tumors = assay: Castrate VCaP tumor xenograft study, tumor growth; type: in vivo; conditions: castrated CB17.SCID mice bearing VCaP tumors, oral gavage; same mg/kg dose and dosing frequency for Compound II-5 and Compound A, FIG. 8
Experimental: Compound II-5 was evaluated for in vivo performance when administered to CB17.SCID mice bearing VCaP cell tumors.
5M VCaP cells were subcutaneously implanted into CB17.SCID mice in 50% Matrigel (Corning). Mice were castrated under anesthesia once tumor volumes reached 100 mm^3. Tumors were then allowed to reach an average of approximately 150 mm^3 before randomization into efficacy arms. Tumors were measured twice weekly for Tumor Growth Inhibition (TGI) calculation. For PK/PD analysis, tumors were allowed to reach an average of 400 mm^3, before dosing the mice with test compound by oral gavage (n=5) for seven days. Mice were sacrificed 24 hours following the final dose, and tumors were harvested for downstream analysis. Plasma samples were collected from all dosed mice 2 hours following the final dose to determine test compound exposure by LC-MS/MS. Test compounds used in the experiment were (i) Compound II-5 and (ii) a commercially available nonsteroidal antiandrogen medication that has been approved by the United States Food and Drug Administration for treatment of prostate cancer (hereinafter “Compound A”).

[2] = target: T1, androgen receptor and BRD4 protein (Homo sapiens, UniProt O60885+P10275); assay: Tumor TR-FRET trimer assay on tumors of the PK/PD Castrate VCaP model; type: in vivo, CB17.SCID mice; conditions: PK/PD Castrate VCaP Tumor Xenograft Model
T1 construct: Tumors obtained from the Castrate VCaP Model were lysed; from tissue; host or cells: VCaP tumour xenografts grown in castrated CB17.SCID mice
Experimental: 5M VCaP cells were subcutaneously implanted into CB17.SCID mice in 50% Matrigel (Corning). Mice were castrated under anesthesia once tumor volumes reached 100 mm^3. Tumors were then allowed to reach an average of approximately 150 mm^3 before randomization into efficacy arms. Tumors were measured twice weekly for Tumor Growth Inhibition (TGI) calculation. For PK/PD analysis, tumors were allowed to reach an average of 400 mm^3, before dosing the mice with test compound by oral gavage (n=5) for seven days. Mice were sacrificed 24 hours following the final dose, and tumors were harvested for downstream analysis. Plasma samples were collected from all dosed mice 2 hours following the final dose to determine test compound exposure by LC-MS/MS. […] the United States Food and Drug Administration for treatment of prostate cancer ([…]).
Tumors obtained from the Castrate VCaP Model were lysed in Cell Signaling Technology lysis buffer supplemented with protease/phosphatase inhibitors and nuclease. Each tumor was lysed in 10 μL of lysis buffer per mg of tumor and placed in a TissueLyser for 4 minutes at 20 Hz. Each sample was spun down at 16000×g for 10 minutes, the supernatant was removed, and a BCA assay was run to quantify the total protein concentration in each sample. In a white opaque 384 well plate each sample was diluted in supplemented CST lysis buffer to 48 and 24 μg of protein in a total volume of 16 μL. 4 μL of a 1:1 mixture of anti-androgen receptor and anti-BRD4 antibodies with donor and acceptor fluorophores were mixed into each well containing tumor samples. The plate was spun down at 300×g for one minute, placed on a plate shaker at 400 RPM for 10 minutes, spun down at 300×g for one minute, then sealed with a plate seal and stored overnight. Approximately 16 hours after adding antibodies, the plate was read on an Envision plate reader. The ratiometric value of each well was calculated by dividing the acceptor signal by the donor signal and multiplying by 10,000.

[3] = Stability analysis of Crystal Form A and Crystal Form B in solvent suspensions (XRPD); type: physicochemical
Experimental: The obtained suspensions were stirred at 25° C. and 50° C. for 1 week, respectively. Solid parts (wet cakes) were isolated by centrifugation filtration at […] temperature and investigated by XRPD.

T1 sequence (P10275 whole entry, other chains not shown): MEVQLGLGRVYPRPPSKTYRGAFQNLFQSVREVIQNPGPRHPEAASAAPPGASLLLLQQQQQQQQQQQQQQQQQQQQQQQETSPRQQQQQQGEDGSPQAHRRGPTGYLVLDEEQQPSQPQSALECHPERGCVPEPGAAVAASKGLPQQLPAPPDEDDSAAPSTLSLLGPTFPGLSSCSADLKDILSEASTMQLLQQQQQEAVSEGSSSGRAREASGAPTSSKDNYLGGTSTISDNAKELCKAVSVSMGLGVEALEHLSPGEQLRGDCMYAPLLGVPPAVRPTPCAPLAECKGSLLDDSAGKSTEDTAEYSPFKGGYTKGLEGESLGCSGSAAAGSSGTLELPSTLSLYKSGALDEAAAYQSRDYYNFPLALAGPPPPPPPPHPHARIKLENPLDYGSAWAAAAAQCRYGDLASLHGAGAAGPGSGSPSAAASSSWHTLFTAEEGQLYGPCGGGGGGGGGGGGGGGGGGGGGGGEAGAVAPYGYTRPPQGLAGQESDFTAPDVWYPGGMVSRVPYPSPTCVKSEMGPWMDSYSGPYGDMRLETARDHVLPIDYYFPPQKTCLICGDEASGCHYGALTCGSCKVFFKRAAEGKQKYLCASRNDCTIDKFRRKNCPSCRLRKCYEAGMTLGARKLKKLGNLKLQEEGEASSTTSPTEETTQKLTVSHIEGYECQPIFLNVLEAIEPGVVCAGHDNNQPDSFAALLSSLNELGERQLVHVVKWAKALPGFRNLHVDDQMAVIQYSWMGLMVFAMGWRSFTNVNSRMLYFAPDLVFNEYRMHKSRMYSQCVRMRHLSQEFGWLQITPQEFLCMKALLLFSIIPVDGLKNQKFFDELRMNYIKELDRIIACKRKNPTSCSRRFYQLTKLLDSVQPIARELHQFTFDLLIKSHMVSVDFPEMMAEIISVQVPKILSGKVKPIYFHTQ

COc1cc(O[C@H]2C(C)(C)[C@H](NC(=O)c3cnc(N4CCC5(CC4)CC(Oc4ccc(C6=N[C@@H](Cc7ncco7)c7nnc(C)n7-c7sc(C)c(C)c76)cc4)C5)nc3)C2(C)C)ccc1C#N [II-5, N-[(1r,3r)-3-(4-cyano-3-methoxy-phenoxy)-2,2,4,4-tetramethyl-cyclobutyl]-2-[2-[4-[(9S)-4,5,13-trimethyl-9-(oxazol-2-ylmethyl)-3-thia-1,8,11,12-tetrazatricyclo[8.3.0.0^2,6]trideca-2 (6),4,7,10,12-pentaen-7-yl]phenoxy]-7-azaspiro[3.5]nonan-7-yl]pyrimidine-5-carboxamide]
ternary complex formation between Compound II-5, androgen receptor, and BRD4 [1]: detected | tumor growth inhibition (tumor volume) (VCaP cell tumors): more effective in reducing tumor growth in this experiment than Compound A | ternary complex formation between compound, androgen receptor, and BRD4 protein in tumors ([2]; oral gavage for seven days, varying doses, FIG. 4): observed | ternary complex formation between compound, androgen receptor, and BRD4 protein in tumors ([2]; Compound II-5 and Compound B at the same dose and dosing frequency, FIG. 20): observed | XRPD form after suspension ([3]; about 3 mg Crystal Form A + 3 mg Crystal Form B in saturated Acetone solution, 25° C. for 1 week): Crystal Form A | XRPD form after suspension ([3]; about 3 mg Crystal Form A + 3 mg Crystal Form B in saturated Acetone solution, 50° C. for 1 week): Crystal Form A | XRPD form after suspension ([3]; about 3 mg Crystal Form A + 3 mg Crystal Form B in saturated Acetonitrile solution, 25° C. for 1 week): Crystal Form A | XRPD form after suspension ([3]; about 3 mg Crystal Form A + 3 mg Crystal Form B in saturated Acetonitrile solution, 50° C. for 1 week): Crystal Form A | XRPD form after suspension ([3]; about 3 mg Crystal Form A + 3 mg Crystal Form B in saturated EtOH solution, 25° C. for 1 week): Crystal Form A | XRPD form after suspension ([3]; about 3 mg Crystal Form A + 3 mg Crystal Form B in saturated EtOH solution, 50° C. for 1 week): Crystal Form A | XRPD form after suspension ([3]; about 3 mg Crystal Form A + 3 mg Crystal Form B in saturated THF/Heptane (1/1, v/v) solution, 25° C. for 1 week): Crystal Form A | XRPD form after suspension ([3]; about 3 mg Crystal Form A + 3 mg Crystal Form B in saturated THF/Heptane (1/1, v/v) solution, 50° C. for 1 week): Crystal Form A
